Measurements: patent US20200246308A1, “SYNERGISTIC COMBINATIONS OF UROLITHINS A AND B FOR IMPROVING COGNITIVE CAPACITY OR COGNITIVE FUNCTION” (Natreon, Inc., priority 2018, published 2020)

Legend:
[1] = test system: scopolamine induced dementia in rats; experiment: Y-maze test, scopolamine induced dementia in rats (Study 2); type: in vivo, Charles Foster male albino rats; details: 50 mg dose orally once daily; for Coping behavior to novel environment (% time in novel arm), trial-2 / Curiosity behavior (total number of entries), trial-1 and trial-2: scopolamine treated rats; for % known and novel arm entries (spatial recognition memory): vs scopolamine treated rats
Procedure: 2.2. Animal subjects. Inbred Charles Foster male albino rats (130-180 g) were obtained from the Central Animal House, Institute of Medical Sciences (IMS), Banaras Hindu University (BHU), Varanasi, Uttar Pradesh, India. These were certified to be pathogen free and were randomly distributed into different experimental groups. The rats were kept in the departmental animal house at an ambient temperature of 25±1° C. and 45-55% RH, with a 12-h light/dark cycle (lights on 7:00-19:00 h). The animals had free access to standard pellet chow and tap water ad libitum. Experiments were conducted between 9:00 and 14:00 h. The behavioral testing was done during the light phase. Animals were housed in groups and acclimatized for at least one week before using them for experiments. Animals were transported in cage covered by dark cloth to the experimental room. The experimental procedures were in compliance with National Institutes of Health Guide for Care and Use of Laboratory Animals.
The rats were pretreated orally for seven days through an orogastric tube with experimental drugs (10, 25 and 50 mg/kg once daily) suspended in 0.3% carboxymethyl cellulose (CMC). The treatment was continued until the end of the experiment procedures (Singh, G. K., Garabadu, D., Muruganadam, A. V., Joshi, V. K., Krishnamurthy, S., “Antidepressant activity of Asparagus racemosus in animal models of depression,” Pharmacol. Biochem. Behav. (2009) 91(3):283-90). Scopolamine was dissolved in water for injection and administered on day 7 after one hour of drug treatment administration. Donepezil (5 mg/kg; i.p.)
was used as standard drug. On day 8 the behavioral experiment was performed. The animals were sacrificed and hippocampus was micro-dissected using the coordinates of the rat brain atlas. All control group animals were treated with the 0.3 ml of vehicle (0.3% CMC suspension) equal to the volume of experimental drugs (Ohj a, R., et al., “Asparagus recemosus enhances memory and protects against amnesia in rodent models,” Brain Cogn. (2010) October; 74(1): 1-9).
Spatial recognition memory, general exploratory behavior, and anxiety-like behavior were assessed by the Y-maze test. Y-maze consists of three similar arms of dimension 50 cm long, 16 cm wide and 32 cm high. In the first trial, the novel arm was blocked and the animal was allowed to move for 15 min in other two arms. In the second trial, the novel arm was opened and the animal was allowed to move for 5 min in all three arms after 4 h of the first trial. The total number of entries in all arms (for 5 min of trial-1 and trial-2) is indicative of general exploration attitude (curiosity). The % entries in known and novel arms for the 5 min period of trial 2 were considered as a measure of spatial recognition memory. Coping strategy to the novel environment was estimated by the percentage of the ratio of time spent in the novel arm to time spent in all arms and in the center of the apparatus during trial 2. The decrease in the coping behavior to the novel environment was considered as an increase in anxiety-like behavior (Krishnamurthy, S., et al., “Risperidone ameliorates post-traumatic stress disorder-like symptoms in modified stress re-stress model,” Neuropharmacology (2013) 75:62-77).

Human recombinant AChE = target: T1, Human recombinant AChE (Homo sapiens, UniProt P22303); experiment: In-vitro human recombinant AChE inhibition assay, Amplex Red kit method; type: biochemical; details: Table 11
T1 construct: purchased Sigma Aldrich
T1 sequence (P22303 32-614): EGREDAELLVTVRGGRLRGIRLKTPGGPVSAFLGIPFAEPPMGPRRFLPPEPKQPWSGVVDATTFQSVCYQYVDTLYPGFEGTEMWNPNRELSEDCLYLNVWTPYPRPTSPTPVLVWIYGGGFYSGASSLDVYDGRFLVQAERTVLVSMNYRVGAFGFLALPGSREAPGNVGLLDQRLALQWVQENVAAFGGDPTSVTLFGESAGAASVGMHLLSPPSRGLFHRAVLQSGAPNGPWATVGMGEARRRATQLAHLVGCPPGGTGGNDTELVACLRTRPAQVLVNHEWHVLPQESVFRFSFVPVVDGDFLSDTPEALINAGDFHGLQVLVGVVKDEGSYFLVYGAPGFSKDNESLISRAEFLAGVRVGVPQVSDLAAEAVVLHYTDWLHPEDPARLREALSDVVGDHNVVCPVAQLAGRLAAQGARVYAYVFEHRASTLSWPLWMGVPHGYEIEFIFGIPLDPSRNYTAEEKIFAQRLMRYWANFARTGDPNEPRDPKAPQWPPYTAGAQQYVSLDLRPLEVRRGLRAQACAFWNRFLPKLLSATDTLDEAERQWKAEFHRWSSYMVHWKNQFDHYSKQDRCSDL
Procedure: In-vitro human recombinant AChE inhibition assay by Amplex Red kit method: The anticholinesterase activity of experimental drugs was measured by using Amplex red assay kit (Molecular Probes, Inc., USA). Fluorescence assay used for the screen of Human AChE activity in the presence of each experimental drug from a commercially available kit (Amplex Red, Invitrogen, Thermo Fisher Scientific, Waltham, Mass.). Acetylcholine, the product of AChE catalysis, was converted to a fluorescent called resorufin by the addition of a series of kit enzymes, including Choline oxidase (CO), horseradish peroxidase (HRP), and the fluorogenic substrate Amplex Red. As the fluorescent molecule resorufin is dependent on acetylcholine production and acetylcholine production is the product of AChE catalysis, the rate of change in fluorescence is a measurement of AChE activity. […] The following procedure is designed for use with a fluorescence multi-well plate scanner. […]
Positive control wells, representing 100% Human recombinant AChE activity (0% human-AChE inhibition), contained, Acetylcholine, and Amplex Red solution. […] Fluorescence measurements were taken at baseline (immediately after substrate was added to each well), and after a 60-minute incubation at 37° C. The fluorescence micro-plate reader was measured using excitation in the range of 530-560 nm and emission detected at 590 nm. […]

[2] = test system: scopolamine induced amnesic rat model; experiment: Passive avoidance test, scopolamine induced amnesic rat model (Example 9B); type: in vivo, Male Wistar rats; details: p.o. 7 days: B 50, A 50, B:A 10:50 and 50:50 mg/kg, Shilajit 25 mg/kg b.i.d; scopolamine 1 mg/kg i.p.
Procedure: The experiment was conducted in accordance with the Principles of laboratory animal care. Male Wistar rats (200-250 g) were purchased from the Central Animal House, Institute of Medical Sciences, Banaras Hindu University (BHU), Varanasi, India. Experiments on animals were approved by the Institutional Animal Ethics Committee of BHU, Varanasi, India. The animals were housed in polypropylene cages under controlled environmental conditions of temperature of 25±1° C. and 45-55% relative humidity and a 12:12 h light/dark cycle. The experimental animals had free access to commercial rat feed and water ad libitum during the experiment. Animals were acclimatized for at least one week before using them for experiments and exposed only once to the experiment.
Rats were randomly allocated into eight study groups containing six in each group (n=6), as follows:
Drug solution was freshly prepared in 0.3% CMC and administered by oral gavage once a day, for a period of 7 days. Briefly, the whole experiment was conducted for 8 days. […]
Passive avoidance (PA) test: The PA task is a fear-aggravated test used to evaluate learning and memory in rodent models of CNS disorders. […] The transfer of the animal from one compartment to another was recorded and transfer latency time (TLT) was calculated in seconds. […]

| Compound | Coping behavior to novel environment (% time in novel arm), trial-2 [1] | Curiosity behavior (total number of entries), trial-1 and trial-2 [1] | % known and novel arm entries (spatial recognition memory) [1] | IC50 (Human recombinant AChE) [µg/mL] | Transfer latency time (TLT), retention trial vs acquisition trial [2] |
| --- | --- | --- | --- | --- | --- |
| O=c1oc2cc(O)ccc2c2ccc(O)cc12 [Urolithin A, 3,8-dihydroxy-dibenzo-alpha-pyrone] | attenuated the scopolamine-induced decrease in coping strategy | attenuated the scopolamine induced decrease in curiosity behavior | dose dependently reversed the % known and novel arm entries | 528.00 ± 70.71 | significant increase in TLT of retention trial in comparison to acquisition trial but less effective as compared to the vehicle treated group |
| O=c1oc2cc(O)ccc2c2ccccc12 [Urolithin B, 3-hydroxy-dibenzo-alpha-pyrone] | attenuated the scopolamine-induced decrease in coping strategy | attenuated the scopolamine induced decrease in curiosity behavior | dose dependently reversed the % known and novel arm entries | 412.00 ± 28.28 | significant increase in TLT of retention trial in comparison to acquisition trial but less effective as compared to the vehicle treated group |
